Reference: patent publication US5616578A (priority 1993, dated 1997)

Tests used:
[1] = in vitro; settings: human, mt-2 cells
Protocol: Cell viability was determined by the metabolism of the tetrazolium dye, XTT, 3,3'-[1-[phenylamino)carbonyl]-3,4-tetrazolium]bis-(4-methoxy-6-nitrobenzene-sulfonic acid(Sigma)(Scudiero et al., Cancer Res. 48:4827-4833 (1988)). In this assay metabolically active cells transform the tetrazolium dye, XTT, to a soluble colored formazan product. Microtiter plates (96 wells) were seeded with 1×10^5 cells/well and graded concentrations of test compounds in RPMI 1640 plus 5% FCS. Cells (MT-2) were allowed to grow at 36° C. in the presence of compounds for 3 days. To each well was added 0.05 ml of 1 mg XTT/ml in phosphate buffered saline (PBS) containing 0.025 mM phenazine methosulfate. Plates were incubated an additional four hours at 36° C. and the A450 was determined. The absorption was proportional to the number of viable cells in the well. The concentration of compound which produced a 50% reduction in the number of viable cells was designated the TC50.
In order to determine how these combinations affect cell viability, a cytotoxicity assay was conducted on combinations of the two compounds over the range 0.3-100 μg/ml and the TC50 s calculated.

[2] = AZT treatment of HIV positive individuals; cited from earlier work
[3] = system: HIV strains; settings: time of AZT treatment after which resistant strains observed; cited from earlier work

For `Cc1cn([C@H]2C[C@H](N=[N+]=[N-])[C@@H](CO)O2)c(=O)[nH]c1=O` [AZT, 3'-azido-3'-deoxythymidine], the CC50 at 72 h [1] is given as > 100 µg/mL, the Toxicity [2] is given as “frequently toxic, causing bone marrow suppression resulting in anemia, leukopenia and thrombocytopenia” and the “AZT-resistant HIV strains observed” value [3] is given as “six”.
